The assay concerns BDF1 mice, P388 leukemia ip, median survival T/C. Kind of assay: NCI In Vivo Anticancer Drug Screen. Data for tumor model P388 Leukemia (intraperitoneal) in B6D2F1 (BDF1) mice. Particulars: endpoint: median survival time, higher = longer survival. The method in brief:
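Read-out is survival of treated animals expressed relative to the vehicle group, as a T/C ratio.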

Where [1] appears, read: dose: 10.0 mg/kg/injection, schedule: Q01DX009 (ip), vehicle: Klucel (hydroxypropylcellulose) (HPC).
The mark [2] stands for this setting: dose: 50.0 mg/kg/injection, schedule: Q01DX009 (ip), vehicle: Klucel (hydroxypropylcellulose) (HPC).
The mark [3] stands for this setting: dose: 50.0 mg/kg/injection, schedule: Q04DX003 (ip), vehicle: saline.
[4] abbreviates: dose: 100.0 mg/kg/injection, schedule: Q01DX009 (ip), vehicle: Klucel (hydroxypropylcellulose) (HPC).
Where [5] appears, read: dose: 100.0 mg/kg/injection, schedule: Q04DX003 (ip), vehicle: saline.
Where [6] appears, read: dose: 100.0 mg/kg/injection, schedule: Q04DX003 (ip), vehicle: saline with Tween-80.
The mark [7] stands for this setting: dose: 200.0 mg/kg/injection, schedule: Q04DX003 (ip), vehicle: saline with Tween-80.
Where [8] appears, read: dose: 400.0 mg/kg/injection, schedule: Q04DX003 (ip), vehicle: saline with Tween-80.
The mark [9] stands for this setting: dose: 25.0 mg/kg/injection, schedule: Q04DX003 (ip), vehicle: saline with Tween-80.
Setting [10] is: dose: 200.0 mg/kg/injection, schedule: Q01DX009 (ip), vehicle: Klucel (hydroxypropylcellulose) (HPC).
Setting [11] is: dose: 100.0 mg/kg/injection, schedule: Q01DX009 (ip), vehicle: saline with Tween-80.
[12] abbreviates: dose: 200.0 mg/kg/injection, schedule: Q01DX009 (ip), vehicle: saline with Tween-80.
Where [13] appears, read: dose: 400.0 mg/kg/injection, schedule: Q01DX009 (ip), vehicle: saline with Tween-80.
Where [14] appears, read: dose: 100.0 mg/kg/injection, schedule: Q01DX009 (ip), vehicle: saline.
Setting [15] is: dose: 200.0 mg/kg/injection, schedule: Q01DX009 (ip), vehicle: saline.
The mark [16] stands for this setting: dose: 50.0 mg/kg/injection, schedule: Q01DX009 (ip), vehicle: saline with Tween-80.
Where [17] appears, read: dose: 25.0 mg/kg/injection, schedule: Q01DX009 (ip), vehicle: saline with Tween-80.

Several values for one entry are separate records, joined by “and”; a condition that tells them apart may be missing. Equal values may be shown once. Inconclusive results and toxic doses are left out.

For `O=C(CSCSCC(=O)Nc1ccc(C2=NCCN2)cc1)Nc1ccc(C2=NCCN2)cc1`, the T/C under setting [1] is 91 % of control; the T/C (dose: 12.5 mg/kg/injection, schedule: Q04DX003 (ip), vehicle: saline) was 100 % of control; the T/C (dose: 25.0 mg/kg/injection, schedule: Q01DX009 (ip), vehicle: Klucel (hydroxypropylcellulose) (HPC)) is 100 % of control and 115 % of control; the T/C under setting [2] is 165 % of control; the T/C under setting [3] was 104 % of control and 109 % of control; the T/C (dose: 75.0 mg/kg/injection, schedule: Q04DX003 (ip), vehicle: saline) is 104 % of control. Further, the T/C under setting [4] was 90 % of control; the T/C under setting [5] was 114 % of control; the T/C (dose: 135.0 mg/kg/injection, schedule: Q04DX003 (ip), vehicle: saline) is 157 % of control; the T/C (dose: 200.0 mg/kg/injection, schedule: Q04DX003 (ip), vehicle: saline) was 157 % of control.

Take `COB(C1CCCCC1)C1CCCCC1`: the T/C is, setting by setting: (dose: 75.0 mg/kg/injection, schedule: Q01DX001 (ip), vehicle: saline) 113 % of control; (dose: 150.0 mg/kg/injection, schedule: Q01DX001 (ip), vehicle: saline) 104 % of control; (dose: 300.0 mg/kg/injection, schedule: Q01DX001 (ip), vehicle: saline) 95 % of control.

Consider `Br/C(=N\Nc1nn[nH]n1)c1ccccc1`, for which the T/C is, setting by setting: under setting [6], 87 % of control; under setting [7], 91 % of control; under setting [8], 91 % of control.

With `CCCCCCCCCCCCCCCC(=O)NCCO`, the T/C (dose: 100.0 mg/kg/injection, schedule: Q04DX003 (ip), vehicle: saline sonified) was 91 % of control.

As for `CCN=C(N)Nc1ccc(NC(=O)c2ccc(C(=O)Nc3ccc(NC(N)=NCC)cc3)cc2)cc1`, the T/C was 213 % of control (dose: 16.5 mg/kg/injection, schedule: Q04DX003 (ip), vehicle: saline with Tween-80); 218 % of control under setting [9]; 109 % of control (dose: 37.5 mg/kg/injection, schedule: Q04DX003 (ip), vehicle: saline with Tween-80); 168 % of control under setting [6]; 86 % of control under setting [7].

With `CCN(CC)C(=O)c1ccc([N+](=O)[O-])cc1`, the T/C under setting [2] was 103 % of control; the T/C (dose: 50.0 mg/kg/injection, schedule: Q04DX003 (ip), vehicle: Klucel (hydroxypropylcellulose) (HPC)) was 95 % of control; the T/C under setting [4] is 100 % of control; the T/C under setting [10] is 89 % of control; the T/C (dose: 200.0 mg/kg/injection, schedule: Q04DX003 (ip), vehicle: Klucel (hydroxypropylcellulose) (HPC)) is 104 % of control.

As for `O=P(NC12CC3CC(CC(C3)C1)C2)(N1CC1)N1CC1`, the T/C is 120 % of control (dose: 2.2 mg/kg/injection, schedule: Q01DX009 (ip), vehicle: Klucel (hydroxypropylcellulose) (HPC)); 183 % of control (dose: 4.4 mg/kg/injection, schedule: Q01DX009 (ip), vehicle: Klucel (hydroxypropylcellulose) (HPC)); 238 % of control and 154 % of control and 211 % of control (dose: 6.6 mg/kg/injection, schedule: Q01DX009 (ip), vehicle: Klucel (hydroxypropylcellulose) (HPC)); 244 % of control and 88 % of control and 122 % of control under setting [1]; 105 % of control (dose: 15.0 mg/kg/injection, schedule: Q01DX009 (ip), vehicle: Klucel (hydroxypropylcellulose) (HPC)).

Consider `c1csc(-c2nc3ccccc3s2)c1`, for which the T/C is 109 % of control under setting [6], 100 % of control under setting [7] and 100 % of control under setting [8].

`COc1ccc(C(=O)CC(C(=O)O)c2ccc3c(c2)OCO3)cc1OC` (centres undefined): the T/C by setting is: under setting [11], 109 % of control; under setting [12], 100 % of control; under setting [13], 104 % of control.

With `O=[N+]([O-])c1ccc(N/N=C/CC(O)CO)c([N+](=O)[O-])c1` (centres undefined), the T/C reads like this: under setting [14], 100 % of control; under setting [15], 120 % of control.

With `CC(C)[C@]12O[C@H]1[C@@H]1O[C@]13[C@]1(O[C@H]1C[C@H]1C4=C(C(=O)OC4)[C@@H](O)C[C@@]13C)[C@@H]2O`, the T/C is 100 % of control and 106 % of control (dose: 0.03 mg/kg/injection, schedule: Q01DX009 (ip), vehicle: saline + alcohol); 113 % of control and 117 % of control (dose: 0.06 mg/kg/injection, schedule: Q01DX009 (ip), vehicle: saline + alcohol); 120 % of control (dose: 0.13 mg/kg/injection, schedule: Q01DX009 (ip), vehicle: saline + alcohol); 150 % of control (dose: 0.25 mg/kg/injection, schedule: Q01DX009 (ip), vehicle: saline + alcohol); 104 % of control (dose: 3.8 micrograms/kg/injection, schedule: Q01DX009 (ip), vehicle: saline); 104 % of control (dose: 6.5 micrograms/kg/injection, schedule: Q01DX009 (ip), vehicle: saline). In addition, the T/C reads like this: (dose: 13.0 micrograms/kg/injection, schedule: Q01DX009 (ip), vehicle: saline) 95 % of control; (dose: 25.0 micrograms/kg/injection, schedule: Q01DX009 (ip), vehicle: saline) 109 % of control; (dose: 100.0 micrograms/kg/injection, schedule: Q01DX009 (ip), vehicle: saline + alcohol) 90 % of control.

Take `O=[N+]([O-])c1ccc(N/N=C/C(Br)(Br)Br)c([N+](=O)[O-])c1`: the T/C is, setting by setting: under setting [16], 111 % of control; under setting [11], 104 % of control; under setting [12], 103 % of control.

For the compound `COC(=O)c1ccc(CBr)cc1`, the T/C reads like this: under setting [17], 103 % of control; under setting [9], 100 % of control; under setting [16], 92 % of control; (dose: 50.0 mg/kg/injection, schedule: Q04DX003 (ip), vehicle: saline with Tween-80) 91 % of control; under setting [6], 100 % of control.

As for `CNCCN(C)CCN(C)Cc1ccc(OC)cc1`, the T/C is 101 % of control (dose: 25.0 mg/kg/injection, schedule: Q01DX009 (ip), vehicle: water); 111 % of control (dose: 50.0 mg/kg/injection, schedule: Q01DX009 (ip), vehicle: saline); 110 % of control (dose: 50.0 mg/kg/injection, schedule: Q01DX009 (ip), vehicle: water); 101 % of control under setting [14]; 93 % of control (dose: 100.0 mg/kg/injection, schedule: Q01DX009 (ip), vehicle: water); 104 % of control under setting [15].

As for `O=C1NC(=O)C2(CCCc3ccc(N(CCCl)CCCl)cc32)N1` (centres undefined), the T/C is, setting by setting: (dose: 6.25 mg/kg/injection, schedule: Q04DX003 (ip), vehicle: saline with Tween-80) 150 % of control; (dose: 12.5 mg/kg/injection, schedule: Q04DX003 (ip), vehicle: saline with Tween-80) 170 % of control; under setting [6], 227 % of control; (dose: 132.0 mg/kg/injection, schedule: Q04DX003 (ip), vehicle: saline with Tween-80) 195 % of control; under setting [7], 229 % of control and 240 % of control; (dose: 300.0 mg/kg/injection, schedule: Q04DX003 (ip), vehicle: saline with Tween-80) 191 % of control.

Regarding `O=[N+]([O-])c1c(Cl)cccc1-c1c[nH]cc1Cl`, the T/C reads like this: under setting [4], 95 % of control; under setting [10], 95 % of control; (dose: 400.0 mg/kg/injection, schedule: Q01DX009 (ip), vehicle: Klucel (hydroxypropylcellulose) (HPC)) 86 % of control.

As to `CCCCC(CC)COC(OCC(CC)CCCC)C(OCC(CC)CCCC)OCC(CC)CCCC` (centres undefined), the T/C under setting [11] is 100 % of control, the T/C under setting [12] was 100 % of control and the T/C under setting [13] was 90 % of control.

With `Cc1nc([N+](=O)[O-])cn1CCC#N`, the T/C is 98 % of control under setting [6], 99 % of control under setting [7] and 86 % of control under setting [8].

On to `Nc1nc(N)c2c(n1)CCCC2`, for which the T/C runs as follows: (dose: 6.25 mg/kg/injection, schedule: Q01DX009 (ip), vehicle: saline with Tween-80) 100 % of control; (dose: 12.5 mg/kg/injection, schedule: Q01DX009 (ip), vehicle: saline with Tween-80) 90 % of control; under setting [17], 90 % of control.

With `CCC1COC(=O)N1` (centres undefined), the T/C is 109 % of control (dose: 25.0 mg/kg/injection, schedule: Q04DX003 (ip), vehicle: saline); 104 % of control under setting [3]; 95 % of control under setting [5].

The values are drawn from PubChem BioAssay AID328 (DTP/NCI, 2004).
